US10440955B2, “Methods comprising a biocidal polyamine” (Curza Global, LLC, priority 2013, dated 2019)
Where a name gives a salt, the structure may show the parent alone. Read-outs that look alike come from different tables or passages of the source.

Experiments:
[1] = tested on: A. baumannii; experiment: MIC, 96-well CAMHB, 10^5 to 10^2 CFU/mL in 24 hours; assay type: cell-based, Acinetobacter baumannii; conditions: for MIC: Acinetobacter baumannii
Procedure: To determine the MIC of polyamine compounds, the protocol described herein was used.
In brief, a 0.5 McFarland of each bacterial isolate was made. A 0.5 McFarland is a measure of turbidity in a liquid sample that contains approximately 1×10^∧8 CFU/mL. The 0.5 McFarland standard was diluted in cation adjusted Mueller Hinton Broth (CAMHB), and 50 μL of broth were added to a well of a 96-well plate. In addition, 50 μL of CAMHB that contained a desired concentration of antimicrobial were also added to the well for a final volume of 100 μL and a final concentration of approximately 5×10^4 CFU/well (which equated to approximately 5×10^5 CFU/mL). Each well contained a desired amount of polyamine compound in order to experimentally determine the MIC. Each 96-well plate was incubated at 37° C. for 24 hours. The contents of each well were plated on tryptic soy agar (TSA). TSA plates were incubated for 37° C. for 24 hours after which the number of CFU were counted and used to calculate the CFU/mL that remained after exposure to varying concentrations of compound. This procedure was repeated n=8 times for each concentration of antimicrobial.
A 0.5 McFarland of A. baumannii is made. A 0.5 McFarland is a measure of turbidity in a liquid sample that contains approximately 7.5×10^7 CFU/mL. The 0.5 McFarland standard is diluted in CAMHB and 50 μL of broth is added to a well of a 96-well plate. In addition, 50 μL of CAMHB that contains a desired concentration of antimicrobial is added to the well for a final volume of 100 μL and a final concentration of approximately 5×10^4 CFU/well (which equates to approximately 5×10^5 CFU/mL). Each well contains a desired amount of CZ compound in order to experimentally determine the MIC. Each 96-well plate is incubated at 37° C. for 24 hours. The contents of each well is plated on tryptic soy agar (TSA). TSA plates is incubated at 37° C. for 24 hours after which the number of CFUs is counted and used to calculate the CFU/mL that remain after exposure to varying concentrations of compound. This procedure is repeated n=8 times for each concentration of antimicrobial. […]

[2] = tested on: A. baumannii biofilms; experiment: MBEC, MBEC Inoculation Tray (Innovotech), to 10^2 CFU/peg in 24 hours; assay type: cell-based, Acinetobacter baumannii
From the text: (§1) To determine the MBEC of each polyamine compound, the MBEC Inoculation Tray by Innovotech, formerly known as the Calgary biofilm device, was used. Within this device, biofilms grow on the surface of polystyrene pegs, 96 of which are attached to a lid. These pegs are inserted into a flat bottom 96-well plate. In this instance, the MBEC of a molecule was defined as the concentration of compound (in μg/mL) required to reduce 10^5 or 10^6 CFU/peg (biofilm levels varied by isolate) to 10^2 CFU/peg in a 24-hour period.
(§2) Following the manufacturer's guidelines, biofilms were grown on the surface of each peg by first making a 0.5 McFarland of each isolate. The 0.5 McFarland was diluted 1:100 in CAMHB. Into each well of a flat bottom 96-well plate, 150 μL of broth were pipetted. The plate was shaken at 100 rpm for 24 hours (P. aeruginosa and A. baumannii) or 48 hours (MRSA). The pegs were then placed into a separate flat bottom 96-well plate for 10 seconds with 200 μL of phosphate buffered saline (PBS) in each well to remove nonadherent cells. The lid was then placed into a 96-well plate that contained varying concentrations of antimicrobial with 200 μL per well. The plate was incubated for 24 hours at 37° C. after which time 100 μL of broth were plated on TSA. TSA plates were incubated 24 hours at 37° C. and the number of CFU counted to calculate the CFU/peg. In this instance, the MBEC was defined as the concentration of antimicrobial required to reduce 10^5 or 10^6 CFU/peg to 10^2 CFU/peg in a 24 hour period.
To determine the MBEC, the MBEC Inoculation Tray by Innovotech, formerly known as the Calgary biofilm device, is used. Within this device, biofilms grow on the surface of polystyrene pegs, 96 of which are attached to a lid. These pegs are inserted into a flat bottom 96-well plate. In this instance, the MBEC of a molecule is defined as the concentration of compound required to reduce approximately 10^6 CFU/peg to approximately 10^2 CFU/peg in a 24-hour period.
Following the manufacturer's guidelines, biofilms are grown on the surface of each peg by first making a 0.5 McFarland of A. baumannii. The 0.5 McFarland is diluted 1:100 in CAMHB broth. Into each well of a flat bottom 96-well plate, 150 μL of broth is pipetted. The plate is shaken at 100 rpm for 24 hours. The pegs are placed into a separate flat bottom 96-well plate for 10 seconds with 200 μL of phosphate buffered saline (PBS) in each well to remove nonadherent cells. The lid is placed into a 96-well plate that contains varying concentrations of antimicrobial with 200 μL of broth per well. The plate is incubated for 24 hours at 37° C. after which time 100 μL of broth is plated on TSA. TSA plates is incubated 24 hours at 37° C. and the number of CFU counted to calculate the CFU/peg.
(§3) MBEC data were collected using the MBEC Inoculation Tray by Innovotech. The MBEC was defined in these preliminary results as the concentration of antimicrobial required to reduce 10^5 or 10^6 CFU/peg to 10^2 CFU/peg in a 24-hour period.

[3] = tested on: L-929 cells (ATCC CCL-1); experiment: Minimal Essential Media (MEM) Elution cytotoxicity test; assay type: cell-based
In short: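 L-929 cells (ATCC CCL-1) were seeded in multiwell plates and grown to roughly 80% confluence. Test article dilutions (1:2, 1:4, 1:8, 1:16) and control extracts were applied in triplicate and incubated 48±3 hours at 37±1° C. in 5±1% CO2. Wells were scored microscopically for morphological cytotoxicity on a 0–4 scale and averaged; Pass required grade not greater than 2 per USP <87>.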

[4] = tested on: MRSA biofilms; experiment: MBEC, MBEC Inoculation Tray (Innovotech), to 10^2 CFU/peg in 24 hours; assay type: cell-based, Staphylococcus aureus
From the text: as §1, §2, §3

Compound | MBEC μg/mL (μM) A. baumannii ([2]; Table 4) [µg/mL] | MBEC μg/mL (μM) A. baumannii ([2]; Table 4, value in parentheses) | MIC ([1]; read-out: MIC (A. bumannii)) [µM] | MBEC μg/mL (μM) MRSA ([4]; Table 4) [µg/mL] | MBEC μg/mL (μM) MRSA ([4]; Table 4, value in parentheses) | further results
Polymyxin B sulfate [reference compound] | 50 | (36) μM |  |  |  | MICs (μg/mL): A. baumannii ([1]; Table 3A c3): 2 µg/mL; MIC μg/mL (μM) A. baumannii ([1]; Table 4): 1 µg/mL; MIC μg/mL (μM) A. baumannii ([1]; Table 4, value in parentheses): (0.7) μM
CC(C)CNCCCNCCCNCc1cc(CNCCCNCCCNCC(C)C)cc(-c2ccccc2)c1 [CZ-86, N^1,N^1′-([1,1′-biphenyl]-3,5-diylbis(methylene))bis(N^3-(3-(isobutylamino)propyl)propane-1,3-diamine), hydrochloride salt] |  |  | < 50 |  |  | Results Pass/Fail ([3]; Table 8A, 400 μg/mL): Fail (a numerical grade greater than 2 is considered a cytotoxic effect, or a failing score (Fail)); Results Pass/Fail ([3]; Table 8A, dilution 1:2 of 400 μg/mL): Fail (a numerical grade greater than 2 is considered a cytotoxic effect, or a failing score (Fail)); Results Pass/Fail ([3]; Table 8A, dilution 1:4 of 400 μg/mL): Fail (a numerical grade greater than 2 is considered a cytotoxic effect, or a failing score (Fail)); Results Pass/Fail ([3]; Table 8A, dilution 1:8 of 400 μg/mL): Pass (receives a passing score (Pass) if the reactivity grade is not greater than grade 2 or a mild reactivity); Results Pass/Fail ([3]; Table 8A, dilution 1:16 of 400 μg/mL): Pass (receives a passing score (Pass) if the reactivity grade is not greater than grade 2 or a mild reactivity)
NCCCNCCCNCc1ccccc1 [CZ-7, benzylnorspermidine] | >500 | (>2,259) μM |  | >500 | (>2,259) μM | MIC ([1]; Table 3A c3, read-out: MICs (μg/mL): A. baumannii): > 500 µg/mL; MIC ([1]; Table 4, value in parentheses, read-out: MIC μg/mL (μM) A. baumannii): > 2260 µM; MIC ([1]; Table 4, read-out: MIC μg/mL (μM) A. baumannii): > 500 µg/mL
NCCCNCCCNCc1cc(CNCCCNCCCN)cc(CNCCCNCCCN)c1 [CZ-52, N^1,N^1′,N^1″-(benzene-1,3,5-triyltris(methylene))tris(N^3-(3-aminopropyl)propane-1,3-diamine), hydrochloride salt] | >500 |  |  | 20 | (40) μM | Results Pass/Fail ([3]; Table 9A, 3.125 μg/mL): Pass (receives a passing score (Pass) if the reactivity grade is not greater than grade 2 or a mild reactivity); Results Pass/Fail ([3]; Table 9A, 6.25 μg/mL): Fail (a numerical grade greater than 2 is considered a cytotoxic effect, or a failing score (Fail)); Results Pass/Fail ([3]; Table 9A, 12.5 μg/mL): Fail (a numerical grade greater than 2 is considered a cytotoxic effect, or a failing score (Fail)); Results Pass/Fail ([3]; Table 9A, 25 μg/mL): Fail (a numerical grade greater than 2 is considered a cytotoxic effect, or a failing score (Fail)); Results Pass/Fail ([3]; Table 9A, 1.563 (unit not given)): Pass (receives a passing score (Pass) if the reactivity grade is not greater than grade 2 or a mild reactivity)
NCCCNCCCNCc1cc(CNCCCNCCCN)cc(-c2ccccc2)c1 [CZ-58, N^1,N^1′-([1,1′-biphenyl]-3,5-diylbis(methylene))bis(N^3-(3-ammoniopropyl)propane-1,3-diaminium) chloride] | >50 | (>113) μM | 50 to 100 | 30 | (68) μM | Results Pass/Fail ([3]; Table 10A, 25 μg/mL): Fail (a numerical grade greater than 2 is considered a cytotoxic effect, or a failing score (Fail)); Results Pass/Fail ([3]; Table 10A, dilution 1:2 of 25 μg/mL): Fail (a numerical grade greater than 2 is considered a cytotoxic effect, or a failing score (Fail)); Results Pass/Fail ([3]; Table 10A, dilution 1:4 of 25 μg/mL): Pass (receives a passing score (Pass) if the reactivity grade is not greater than grade 2 or a mild reactivity); Results Pass/Fail ([3]; Table 10A, dilution 1:8 of 25 μg/mL): Pass (receives a passing score (Pass) if the reactivity grade is not greater than grade 2 or a mild reactivity); Results Pass/Fail ([3]; Table 10A, dilution 1:16 of 25 μg/mL): Pass (receives a passing score (Pass) if the reactivity grade is not greater than grade 2 or a mild reactivity)
NCCCNCCCNCc1cccc(CNCCCNCCCN)c1 [CZ-25, N^1,N^1′-(1,3-phenylenebis(methylene))bis(N3-(3-ammoniopropyl)propane-1,3-diaminium) chloride] | 450 |  | > 100 | 25 | (69) μM | 
CN[C@H](CC(C)C)C(=O)N[C@H]1C(=O)N[C@@H](CC(N)=O)C(=O)N[C@H]2C(=O)N[C@H]3C(=O)N[C@H](C(=O)N[C@H](C(=O)O)c4cc(O)cc(O)c4-c4cc3ccc4O)[C@H](O)c3ccc(c(Cl)c3)Oc3cc2cc(c3O[C@@H]2O[C@H](CO)[C@@H](O)[C@H](O)[C@H]2O[C@H]2C[C@](C)(N)[C@H](O)[C@H](C)O2)Oc2ccc(cc2Cl)[C@H]1O [vancomycin, reference compound] |  |  |  | >500 | (>345) μM | 
